Data on six molecules can be found in patent US20100016172A1, “Nucleic acid binding assay materials and methods” (priority 2007, published 2010).

The test system of one data set is DNA hairpin target array. As to the kind of experiment: CSI array binding assay of Cy3-labeled Exd alone or with polyamide-peptide conjugates. The note with it: for Motifs emerging from polyamide-Exd CSI data: in addition to G-stretches, Exd 20 nM, polyamide 50 nM. As for the experimental part:
Protein Binding: The microarrays were washed with 150 mM K-glutamate, 50 mM HEPES pH 7.5, 5% glycerol (reaction buffer), for 5 minutes. […] This solution was added to the hybridization chamber and incubated for 30 minutes. Subsequently, the microarrays were washed with reaction buffer and scanned.
To determine the sequence specificity of Exd, we labeled it with Cy3 at a unique cysteine residue on an unstructured portion of the protein (FIG. 6) (Passner, J. M., Ryoo, H. D., Shen, L., Mann, R. S. & Aggarwal, A. K. (1999) Nature 397, 714-719).
Array design for Hox/Exd Cooperative Binding Assay. The duplex DNA sequences are designed as self-complementary palindromes interrupted at the center by a TCCT sequence to facilitate the formation of DNA hairpins (FIG. 7). The 34 residue oligonucleotide is synthesized directly on the glass surface using a maskless array synthesizer (Singh-Gasson, S., Green, R. D., Yeu, Y., Nelson, C., Blattner, F., Sussman, M. R., Cerrina, F. (1999) Nat. Biotechnol. 17, 974-978) that can readily create up to 786,000 spatially resolved features. The unimolecular construction of duplex DNA allows the array to be reused several times without appreciable loss of information. After inducing hairpin formation, we find that greater than 95% of the oligonucleotides in the array form duplexes. In our hairpin design, we added three constant base pairs on either side of the 8 base pairs that were permuted (N′-8).
PA2 and PA3 (ImImPy*Py-γ-ImPyPyPy-β-Dp) are designed to target the sequence 5′-WGWCCW-3′. […] PA2 and PA3 differ solely by a single methylene in the linker connecting the Exd binding peptide to the polyamide (FIG. 8A) (Hauschild, K. E., Metzler, R. E., Arndt, H. D., Moretti, R., Raffaelle, M., Dervan, P. B., Ansari, A. Z. (2005) Proc. Natl. Acad. Sci. U.S.A. 102, 5008-5013). Since these polyamides are not fluorescently labeled, we detect cognate sites bound cooperatively by synthetic Hox mimics and Exd, as well as sites bound by Exd alone.
The raw array data for the above experiments were treated as described in Example 2. […] The Exd binding motif is 5′-NGAN-3′, which is consistent with the structural and genetic studies of Hox-Exd cognate sites (White, R. A., Aspland, S. E., Brookman, J. J., Clayton, L. & Sproat, G. (2000) Mech. Dev. 91, 217-226). In other words, the 5′-GA-3′ dinucleotide is the only required sequence determinant for Exd binding to DNA. Remarkably, the array identified the differences in the arrangement of polyamide and Exd binding sites due to ˜1.25 Å difference in the linker length between PA2 and PA3 (FIG. 8C). The other important result that emerges is that cooperative ternary assembly with Exd stabilizes binding of synthetic Hox mimics to truncated sites (5′-WGWC-3′). This is often seen in nature, where cooperative assembly of transcription factors utilizes sub-optimal binding sites to ensure that only a higher order complex can efficiently bind to a regulatory element (Thanos, D. & Maniatis, T. (1996) Methods Enzymol. 274, 162-173; Ptashne, M. & Gann, A. Genes and Signals. (2002) CSHL Press, New York).

Another data set concerns Consensus hairpin DNA. As to the kind of experiment: Piper electrophoretic mobility shift assay. The class given is binding. The note with it: 5 μM of PIPER. How it is done: (§1) The dotted line represents residues that are disordered in the crystal structure. The Exd residue R2C, is the unstructured amino acid to which the Cy3 dye is attached. […] The G-rich DNA in the absence of Exd has a band (bottom arrow), which is higher than the Consensus DNA shift with Exd and polyamide.
(§2) Piper Electrophoretic Mobility Shift Assay (FIG. 6D). The G-rich and Consensus hairpin DNA (same DNA as used in Hairpin Induction for EMSA) were incubated with increasing PIPER (Humphrey, W., Dalke, A. & Schulten, K. (1996) J. Mol. Graphics 14, 33-38) concentrations. PIPER final concentrations were […]. The gels were run and processed as above using an 8% acrylamide/3% glycerol gel with 0.5×TBE.
Background: In EMSA bound probe runs differently from free probe, usually more slowly.

The test system of data set [1] is G-rich hairpin DNA. In words: Piper electrophoretic mobility shift assay. To be noted: 5 μM of PIPER. Type of data set: binding. How it is done:
as §1, §2

Data set [2] has as its system DNA cognate sites (sequences used in the footprints). The note with it: footprinting, cited from earlier work.
Data set [3] deals with 8-position sequence variation DNA hairpin target array. In words: CSI array binding assay of PA1 (Cy3 fluorescence intensity). The source says:
Hairpin Target CSI Microarray. Each hairpin target was composed of a central permuted 8 base pair region with X^1 with a three base pair CGC sequence anchor region flanking either end, with a complementary sequence on X^2. A fluorescently tagged nucleic acid binding assay molecule was applied to the microarray to generate the nucleic acid binding profile for that assay molecule. Analysis of the array signal intensity gives rise to a reference grid showing the binding intensity output for the array. High intensity features indicate tight binding of the assay molecule to that specific target sequence.
Binding Assay: Microarray slides were immersed in 1×PBS (Phosphate Buffered Saline) and placed in a 90° C. water bath for 30 minutes to induce hairpin formation of the oligonucleotides. Slides were then transferred to a tube of non-stringent wash buffer (Saline-Sodium Phosphate-EDTA Buffer, 0.01% v/v Tween-20) and scanned to check for low background (<200 intensity). Microarrays were scanned using a ScanArray 5000 and the image files extracted with GenePix Pro version 3.0.
Polyamide binding: Microarrays prepared as above were placed in the microarray hybridization chamber and washed twice with non-stringent wash buffer. Polyamide was diluted to 5 nM in Hyb buffer (100 mM MES, 1 M NaCl, 20 mM EDTA, 0.01% v/v Tween-20). Polyamide (5 nM) was then added to the hybridization chamber and incubated at room temperature overnight (16 hours). Finally, the microarrays were washed twice with non-stringent wash buffer and scanned.
The array-to-array variability was very low with an average correlation coefficient of 0.88 (FIG. 4A). […] The duplicate features within an array and replicate features between arrays were averaged together to give finalized intensities. These averaged intensities were then converted into Z-scores [z=signal−meant/standard deviation] to reflect the signal-to-noise ratio.
Data Processing: For each replicate, global mean normalization was used to ensure the mean intensity of each microarray was the same. Local mean normalization (Colantuoni, C., Henry, G., Zeger, S. & Pevsner, J. (2002) Bioinformatics 18, 1540-1541) was then used to ensure the intensity was evenly distributed throughout each sector of the microarray surface. Outliers between replicate features were detected using the Q-test at 90% confidence and filtered out. The replicates were then quantile normalized (Bolstad, B. M., Irizarry, R. A., Astrand, M. & Speed, T. P. (2003) Bioinformatics 19, 185-193) in order to account for any possible non-linearity between arrays. Duplicate features were then averaged together. The median of the averaged features was subtracted to account for background.
Z-scores were calculated as |signal−median|/standard deviation. Due to the right-handed tail effect, standard deviation of the background signal was based upon the standard deviation from the median of all signals less than the median. The relationship of Z-score to P-value can be found in Table 1, below. Motifs were then found by running several motif finding algorithms (Bailey, T. L. & Elkan, C. (1994) Proc. of the 2nd Intl. Conference on Intelligent Systems for Mol. Biol., AAAI Press, Menlo Park, Calif., 28-36; Hughes, J. D., Estep, P. W., Tavazoie, S. & Church, G. M. (2000) J. Mol. Biol. 296, 1205-1214; Liu, X. S., Brutlag, D. L. & Liu, J. S. (2002) Nat. Biotechnol. 20, 835-839) on sequences in the highest Z-score bin. Logos (Schneider, T. D. & Stephens, R. M. (1990) Nucl. Acids Res. 18, 6097-6100) of each motif were then created by using sequences from the highest Z-score bin that contained the motif.

Data set [4] has as its target T1, Extradenticle (Exd) homeodomain (Drosophila melanogaster, UniProt P40427 SEQ:1-63).
T1 sequence: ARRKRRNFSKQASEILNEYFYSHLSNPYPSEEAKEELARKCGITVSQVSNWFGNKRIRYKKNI
As to the kind of experiment: EMSA; 100 nM Exd; band completely shifted; polyamide has no effect; K-glutamate 150 mM, HEPES pH 7.5. The note with it: tags: none stated for EMSA; label: 32P; hairpin design; likely G-quadruplex. As for the experimental part: Electrophoretic Mobility Shift Assays: 40mer DNA sequences labeled with ³²P (as per standard methods) were used in all reactions. Reactions were performed in a buffer composed of 150 mM Potassium Glutamate, 50 mM HEPES pH=7.5, 2 mM DTT, 100 ng/μL of BSA, 10% DMSO, and 10% glycerol. For the binding tests, polyamide-peptide conjugates (50 nM final concentration) and ³²P-DNA were incubated together for 30 minutes at 4° C. Exd was then added to bring the reaction volume to 20 μL. Exd final concentrations were 0.033, 0.1, 0.33, 1, 3.3, 10, 33, and 100 nM. These reactions were incubated at 4° C. for 1 hour and then 15 μL was loaded onto a pre-run 10% acrylamide/3% glycerol gel (1×TBE).
(§3) Hairpin Induction for Electrophoretic Mobility Shift Assay (Supplementary Figure S4B). Hairpin DNA was formed by heating synthesized ssDNA to 95° C. for 5 minutes and then rapidly cooling them on ice. The 34mer DNA […] were then labeled with ³²P (as per standard methods). For the hairpin electrophoretic mobility shift assays the concentrations of polyamide used were 50 nM, and Exd was present at a concentration of 100 nM. The reactions were performed in the above buffer and the gels were then run as before with the following exceptions: the gels were 8% acrylamide/3% glycerol gel with 0.5×TBE.

In data set [5] the test system is G-rich hairpin DNA. As to the kind of experiment: Hairpin electrophoretic mobility shift assay with Exd and polyamide. Type of data set: binding. The note with it: upon addition of Exd (100 nM). As for the experimental part: as §1
as §3, with “^32P” for “³²P”

Like-named read-outs stand apart in the source and are kept apart here.

Consider ImImPy*Py-γ-ImPyPyPy-β-Dp [PA2], for which the “Motifs emerging from polyamide-Exd CSI data” value with DNA hairpin target array was “three clear motifs”.

On to ImImPy*Py-γ-ImPyPyPy-β-Dp [PA3], for which, in the data set on DNA hairpin target array, the “Motifs emerging from polyamide-Exd CSI data” value is “only two of those motifs”.

For `O=C1c2ccc3c4ccc5c6c(ccc(c7ccc(c2c37)C(=O)N1CCN1CCCCC1)c64)C(=O)N(CCN1CCCCC1)C5=O` [PIPER, N,N-Bis[2-(1-piperidino)ethyl]-3,4,9,10-perylenetetracarboxylic diimide], the “Aggregation of DNA (immobility from the well)” value is recorded as “does not” in the data set with Consensus hairpin DNA and “significant aggregation” in the data set on G-rich hairpin DNA [1].

As to ImPy*PyPy-γ-ImPyPyPy-β-Dp [PA1], the Ka in data set [2] (Data Point A, sequence ATGTACAT) is reported as 70 10^9 M^−1; in data set [2] (Data Point B, sequence AGTACT), 37 10^9 M^−1; in data set [2] (Data Point C, sequence ATCTACAT) it was 3.2 10^9 M^−1; in data set [2] (Data Point D, sequence ATATACAT), 2.8 10^9 M^−1; in data set [2] (Data Point E, sequence ATGTATTT), 0.41 10^9 M^−1. In addition, the Intensity in data set [3] (Data Point A, average of all features containing ATGTACAT) was found to be 19715; in data set [3] (Data Point B, average of all features containing AGTACT), 10952; in data set [3] (Data Point C, average of all features containing ATCTACAT), 3035.5; in data set [3] (Data Point D, average of all features containing ATATACAT), 2073.25; in data set [3] (Data Point E, average of all features containing ATGTATTT), 1426.5. For the same molecule, the “Intensity relative to other permutations of the consensus sequence” value in data set [3] (all sequences containing 5′-WWGATCWW-3′) was “significantly lower intensities”. For the same molecule, the “Effect of substitution on binding” value in data set [3] (double substitution at positions 3 and 6 to W (A/T stretch)) is reported as “retains its ability to bind PA1”; in data set [3] (replacing one of the S residues at positions 6 (or 3′) with a W), “significantly attenuates, but does not abolish binding”; in data set [3] (substituting an S (G or C) at position 8) it was “only subtly decreases binding”; in data set [3] (substituting any other position that prefers a W with an S residue), “nearly abolishes binding”.

For CGCCCCCCCCCCGCTCCTGCGGGGGGGGGGCGTTTT (structured_DNA) [G-rich hairpin DNA], the binding result in data set [4] is reported as “binds”.

B1: Exd: transcription factor essential in Drosophila development; used Cy3-labeled (Exd R2C, residues 1-88) on the array (protein, UniProt P40427 1-88, looked up, fragment)
chain: MEDPNRMLAHTGGMMAPQGYGLSGQDDGQNAGSENEVRKQKDIGEILQQIMSISEQSLDEAQARKHTLNCHRMKPALFSVLCEIKEKT
modifications: Cy3 label
notes: transcription factor essential in Drosophila development; used Cy3-labeled (Exd R2C, residues 1-88) on the array
With B1, in the data set on G-rich hairpin DNA [5], the “Band shift of G-rich DNA” value is “completely shifted”. Besides, in the data set with DNA hairpin target array (Cy3-labeled Exd with PA2 or PA3), the Exd binding motif is 5′-NGAN-3′. Further, the Sequence preference entry in the data set on DNA hairpin target array (Exd alone) was “unexpected preference for stretches of consecutive G-residues”. Further, the Sequence-specific binding entry in the data set with DNA hairpin target array (Exd alone, 0.2-200 nM) is reported as “little sequence-specific binding”.
